The numbers were not newly measured in patent US20250032516A1, “COMPOSITIONS AND METHODS FOR TREATING EPILEPSY” (POVIVA CORP, priority 2023, published 2025), which cites them from elsewhere.

Read-outs that look alike come from different tables or passages of the source.

For this data set the following is noted: children with Dravet syndrome.

Take `C=C(C)[C@@H]1CCC(C)=C[C@H]1c1c(O)cc(CCCCC)cc1O` [Cannabidiol, 2-[(1R,6R)-6-Isopropenyl-3-methylcyclohex-2-en-1-yl]-5-pentylbenzene-1,3-diol]: the “Plasma concentration on Day 1 at starting CBD dose, 5 hours, Mean (SD)” value is 10.0 (5.74) ng/mL (5 mg/kg/day group (N = 10)), 11.3 (11.7) ng/mL (10 mg/kg/day group (N = 8)) and 25.3 (42.4) ng/mL (20 mg/kg/day group (N = 9)). Besides, the “Plasma concentration on Day 1 at starting CBD dose, […], Mean (SD)” value is, setting by setting: (5 mg/kg/day group (N = 10)) 37.6 (53.7) ng/mL; (10 mg/kg/day group (N = 8)) 34.4 (32.1) ng/mL; (20 mg/kg/day group (N = 9)) 29.3 (28.5) ng/mL.
